Measured values from US5859036A, “3,4-diarylthiazolin-2-one or -2-thione derivatives, their methods of preparation and their uses in their methods of preparation and their uses in therapeutics” (Laboratories UPSA, priority 1997, dated 1999).

Assays:
[1] = target: T1, COX-2 (Ovis aries, UniProt P79208); test: Inhibition of COX-2 enzymatic activity (purified enzyme from ewe placenta, PGE2 by EIA); type: biochemical; conditions: for IC50: 1 U COX-2, 10 min preincubation at 25° C., 4 μM arachidonic acid, 5 min, n=1 to 4; for Selectivity COX-1/COX-2 ratio: ratio of IC50 COX-1 / IC50 COX-2
T1 construct: purified enzyme from ewe placenta; from tissue; host or cells: ewe placenta
T1 sequence (P79208 17-603): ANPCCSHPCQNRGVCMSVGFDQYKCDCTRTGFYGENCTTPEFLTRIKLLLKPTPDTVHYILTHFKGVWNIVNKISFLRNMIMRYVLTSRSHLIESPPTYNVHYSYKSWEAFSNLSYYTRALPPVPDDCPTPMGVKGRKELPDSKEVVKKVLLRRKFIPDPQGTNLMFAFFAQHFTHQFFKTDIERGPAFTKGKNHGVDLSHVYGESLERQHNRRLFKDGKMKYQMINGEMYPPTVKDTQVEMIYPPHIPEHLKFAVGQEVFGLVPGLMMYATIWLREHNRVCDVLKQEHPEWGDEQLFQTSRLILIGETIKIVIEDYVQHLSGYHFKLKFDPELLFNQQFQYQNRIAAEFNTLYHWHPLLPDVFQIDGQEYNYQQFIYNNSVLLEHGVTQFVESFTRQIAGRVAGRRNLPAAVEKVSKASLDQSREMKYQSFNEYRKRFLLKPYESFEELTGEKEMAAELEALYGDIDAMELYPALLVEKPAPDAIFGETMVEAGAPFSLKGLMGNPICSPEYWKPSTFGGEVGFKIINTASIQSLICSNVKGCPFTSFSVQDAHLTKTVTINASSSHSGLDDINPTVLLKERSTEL
Procedure: (§1) Inhibition of the COX-1 and COX-2 enzymatic activities The molecule studied is preincubated for 10 minutes at 25° C. with 2 U of COX-1 (purified enzyme from ram seminal vesicles) or 1 U of COX-2 (purified enzyme from ewe placenta). Arachidonic acid (6 μM for COX-1,4 μM for COX-2) is added to the reaction medium and incubation is carried out for 5 minutes at 25° C. When incubation has ended, the enzymatic reaction is stopped by the addition of 1 N HCl and the PGE2 produced is determined by EIA. The results are expressed in the form of IC50, concentration in […] corresponding to 50% inhibition of the maximal enzymatic activity upon COX-1 and COX-2 (n=1 to 4 determinations).

[2] = target: T2, COX-1 (Ovis aries, UniProt P05979); test: Inhibition of COX-1 enzymatic activity (purified enzyme from ram seminal vesicles, PGE2 by EIA); type: biochemical; conditions: 2 U COX-1, 10 min preincubation at 25° C., 6 μM arachidonic acid, 5 min; n=1 to 4
T2 construct: purified enzyme from ram seminal vesicles; from tissue; host or cells: ram seminal vesicles
T2 sequence (P05979 25-600): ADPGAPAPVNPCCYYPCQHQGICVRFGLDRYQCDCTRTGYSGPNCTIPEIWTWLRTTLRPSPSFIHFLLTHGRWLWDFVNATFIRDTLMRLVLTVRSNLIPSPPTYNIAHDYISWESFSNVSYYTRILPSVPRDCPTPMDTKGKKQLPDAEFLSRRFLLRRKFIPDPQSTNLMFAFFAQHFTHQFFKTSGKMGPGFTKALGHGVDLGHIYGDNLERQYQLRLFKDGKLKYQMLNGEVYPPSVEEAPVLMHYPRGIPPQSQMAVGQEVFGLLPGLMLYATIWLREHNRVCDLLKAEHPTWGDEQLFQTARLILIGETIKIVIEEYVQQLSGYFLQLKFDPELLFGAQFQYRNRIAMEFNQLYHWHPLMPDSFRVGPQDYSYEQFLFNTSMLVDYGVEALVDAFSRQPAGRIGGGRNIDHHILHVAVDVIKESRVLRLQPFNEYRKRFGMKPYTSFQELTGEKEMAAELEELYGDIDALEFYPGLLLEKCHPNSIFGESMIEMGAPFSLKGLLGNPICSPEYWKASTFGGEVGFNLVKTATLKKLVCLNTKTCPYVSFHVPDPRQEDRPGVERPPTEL
Procedure: as §1

[3] = Analgesic activity, test of arthritis with kaolin in rats; type: in vivo; conditions: 0.5 h; rat, oral, 30 min after intra-articular 10% kaolin; dose inducing 50% decrease of the maximal quotations of control
Procedure: (§2) The anti-inflammatory activity of the compounds of the Examples has been evaluated according to the method of oedema with carrageenan and the analgesic activity has been evaluated according to the method of arthritis with kaolin.
The analgesic activity is evaluated in rats by the test of arthritis with kaolin. Thirty minutes after intra-articular administration of an aqueous 10% suspension of kaolin, the product is administered orally at a rate of 1 ml/ 100 g (n=10 animals per dose). The results are expressed in the form of ED50, the dose in mg/kg which induces 50% decrease of the maximal quotations obtained in the control batch, calculated by linear regression.

[4] = Anti-inflammatory activity, test of oedema with carrageenan in rats; type: in vivo; conditions: rat, oral, product 1 h before plantar injection of 2% carrageenan; dose inducing 50% of the maximal decrease of oedema volume; read-out: Anti-inflammatory Activity ID50
Procedure: as §2
Anti-inflammatory activity:
The anti-inflammatory activity is evaluated in rats by the test of oedema with carrageenan. The product is administered orally at a rate of 2.5 ml/100 g (n=6 animals per dose) 2 hours 30 minutes after a water overload taken orally (2.5 ml/100 g). One hour after administration of the product, the oedema is induced by plantar subcutaneous injection of aqueous 2% carrageenan solution. The results are expressed as ID50, dose in mg/kg, calculated by linear regression, which induces 50% of the maximal decrease of the volume of the oedema obtained from each product tested.

| Compound | IC50 [1] | Selectivity COX-1/COX-2 ratio [1] | IC50 [2] | ED50 [3] | ED50 [4] |
| --- | --- | --- | --- | --- | --- |
| NS(=O)(=O)c1ccc(-c2csc(=S)n2-c2cccc(F)c2)cc1 [Example 29] | 0.65 µM | 396 | 258 µM |  |  |
| NS(=O)(=O)c1ccc(-c2csc(=S)n2-c2ccc(F)c(F)c2)cc1 [Example 30] | 0.21 µM | 94 | 19.8 µM |  |  |
| NS(=O)(=O)c1ccc(-c2csc(=O)n2-c2cccc(F)c2)cc1 [Example 45] | 0.24 µM | 1367 | 335 µM | 1.3 mg/kg | 2.8 mg/kg |
| NS(=O)(=O)c1ccc(-c2csc(=S)n2-c2ccc(F)cc2)cc1 [Example 13] | 0.93 µM | 34 | 32 µM |  |  |

The remaining molecules from weak to strong by IC50 [1], led by results:

| IC50 [1] | Selectivity COX-1/COX-2 ratio [1] | IC50 [2] | Compound | ED50 [3] | ED50 [4] |
| --- | --- | --- | --- | --- | --- |
| 3.34 µM | 30 | 100 µM | CS(=O)(=O)c1ccc(-c2csc(=S)n2-c2cccc(Cl)c2)cc1 [Example 9] |  |  |
| 2 µM | 9 | 17.6 µM | COc1ccc(-n2c(-c3ccc(S(N)(=O)=O)cc3)csc2=S)cc1Cl [Example 20] |  |  |
| 0.57 µM | 286 | 163 µM | CS(=O)(=O)c1ccc(-c2csc(=O)n2-c2ccc(Cl)cc2)cc1 [Example 46] |  |  |
| 0.14 µM | 14 | 1.94 µM | NS(=O)(=O)c1ccc(-c2csc(=O)n2-c2ccc(Cl)c(Cl)c2)cc1 [Example 39] |  |  |
